Test results from US20040229268A1, “Method and kit for identifying antibiotic-resistant microorganisms” (priority 2003, published 2004).

What was measured:
[1] = tested on: mecA gene; Staphylococcus spp. and S. aureus ribosomal nucleic acids; experiment: HPA probe panel on clinical and ATCC isolates (Examples 8-9); assay type: binding
Procedure: Oxacillin MIC results were provided by an outside laboratory. The GP Probe results were determined as described in Example 8.

[2] = tested on: mecA gene; Staphylococcus ribosomal nucleic acids; experiment: HPA after thermal lysis, base hydrolysis and neutralization (Examples 5-7); assay type: binding, S. aureus
Procedure: The cultured S. aureus specimens were lysed by suspending 1 μl loops of bacteria in 150 μl of lysis buffer and then incubating at 105° C. for 15 minutes. Next, 100 μl of 2 N LiOH base solution was added and RNA was hydrolyzed by incubating the mixtures at 60° C. for 15 minutes. Hydrolyzed samples were neutralized by the addition of 100 μl of a neutralizing reagent that included 2 N HCl and 100 mM succinate buffer (pH 5.5 prior to acidification with HCl). Specifically hybridized probe was detected by standard HPA, essentially as described in Example 1.
Specimens (1 μl loops of bacteria) were treated and tested essentially as described in Example 5 with the following differences: incubation for lysis was for 15 minutes and incubation for hybridization was for 45 minutes for samples shown in Tables 7-8, while incubation for lysis was for 10 minutes and incubation for hybridization was for 20 minutes for samples shown in Table 9. All of the base-treated solutions were neutralized by the addition of 250 μl of 0.8 N HCl containing 100 mM succinate.
2′-methoxy analogs of the AE-labeled DNA probes were prepared by standard phosphoramidite synthesis using 2′ methoxy phosphoramidite analogs. Additional linker positions, which are indicated by parentheses in Table 11, for probe 2 were also prepared for testing. Deoxy probes and 2′-methoxy probe analogs were tested essentially as described in Example 5, except as noted below. Probes synthesized using 2′-methoxy nucleotide analogs are particularly identified by the “MeO” designations. Brief summaries of the procedures used to obtain the results are appended to the tables.

[3] = tested on: mecA gene; rRNA (pan-bacterial probe); experiment: Hybridization Protection Assay (HPA), AE-labeled probes, thermally lysed specimens (Examples 1-2); assay type: binding, S. aureus
Procedure: The specimens were lysed by suspending approximately 5×10^8 cells in a lysis buffer (0.1% lithium lauryl sulfate, 1 mM EDTA, 20 mM lithium succinate, pH 5.5) and then incubating in a heat block set at 110° C. for 20 minutes. Thermal lysis of a variety of other specimens was effected under a range of temperature (heat block set at about 95° C. to 110° C.) and time (about 10 to 25 minutes) conditions. The lysed samples were tested for the presence of target sequences complementary to the probes using a Hybridization Protection Assay (HPA) as described by Arnold et al., in Clin. Chem. 35:1588(1989) and U.S. Pat. No. 6,004,745. 50 μl of the heat-treated suspension was incubated with an equal volume of AE-labeled probe in 2× hybridization buffer (1.2 M LiCl, 2% lithium lauryl sulfate, 20 mM EDTA, 20 mM EGTA, 100 mM lithium succinate, pH 5.5) at 60° C. for 30 minutes. The pH of succinate solutions may range from about 4.5 to about 5.5, although it is desirable to use a pH of 4.8 for succinate buffering. 300 μl of a selection reagent (0.6 M borate buffered solution, pH 8.5; note, pH may vary from 8.0 to 9.0) was added, the mixture was heated at 60° C. for 10 minutes to effect differential hydrolysis, and the samples were read in a GEN-PROBE® LEADER® luminometer using sequential 300 μl injections of 0.1% H2O2 and 1 N NaOH solutions (see Arnold et al, supra; GEN-PROBE® Detection Reagent Kit, Cat. No. 1791 may be used).
Procedures similar to those described in Example 1 were conducted using a large number of bacterial samples, except that parallel hybridization reactions employed a pan-bacterial probe which targeted rRNA (Probe Reagent 1, GEN-PROBE® MTC-NI Kit, catalog no. 4573). […] The pan-bacterial probe reagent served as a positive control for lysis of all of the specimens. In this procedure each sample was tested against a panel of the three probes contained in separate hybridization reactions. Aliquots of the samples tested using the pan-bacterial probe reagent were diluted 1:3000 prior to performing luminometry so that results fell within the linear range of the detector. The signals indicated lysis and detection of ribosomal nucleic acids in each of the samples. These values depended on the number of bacterial cells in the specimen, as well as on the extent of cell lysis and the release or accessibility of ribosomal nucleic acids from the cells to be detected by the pan-bacterial probe.

[4] = Table 10, neutralize 100 μl 2 N HCl containing 200 mM succinate, hybridize 45 minutes at 60° C.

With “CCGAACTGAGAACAACTTTATGGGATTTGC (chemistry not given here) [Staphylococcus spp. probe with helpers]” the “HPA Results (# positive for indicated probes)” value ([1]; ATCC MRSA, 1 isolate, Oxacillin MIC 16 μg/ml) was 1, the “HPA Results (# positive for indicated probes)” value ([1]; ATCC MSSA, 1 isolate, Oxacillin MIC 1 μg/ml) was 1 and the “HPA Results (# positive for indicated probes)” value ([1]; ATCC MSSA, 4 isolates, Oxacillin MIC 0.5 μg/ml) was 4. The “HPA Results (# positive for indicated probes)” value ([1]; ATCC MSSA, 6 isolates, Oxacillin MIC ≦0.25 μg/ml) was 6, the “HPA Results (# positive for indicated probes)” value ([1]; Clinical MRSA, 8 isolates, Oxacillin MIC 16 μg/ml) was 8 and the “HPA Results (# positive for indicated probes)” value ([1]; Clinical MRSA, 107 isolates, Oxacillin MIC >16 μg/ml) was 107. For the same substance, the “HPA Results (# positive for indicated probes)” value ([1]; Clinical MSSA, 28 isolates, Oxacillin MIC 0.5 μg/ml) was 28, the “HPA Results (# positive for indicated probes)” value ([1]; Clinical MSSA, 99 isolates, Oxacillin MIC ≦0.25 μg/ml) was 99 and the “HPA Results (RLU)” value ([1]; GP21 (S. aureus, mecA(−), MSSA)) was 373232 RLU. The “HPA Results (RLU)” value ([1]; GP22 (CoNS, mecA(+))) was 225141 RLU, the “HPA Results (RLU)” value ([1]; GP23 (S. aureus, mecA(−))) was 301657 RLU and the “HPA Results (RLU)” value ([1]; GP24 (S. aureus, mecA(+))) was 306718 RLU. The “HPA Results (RLU)” value ([1]; GP25 (S. aureus, mecA(+))) was 456426 RLU, the “HPA Results (RLU)” value ([1]; GP26 (S. aureus, mecA(−))) was 262267 RLU and the “HPA Results (RLU)” value ([1]; GP27 (CoNS, mecA(−))) was 182304 RLU. The “HPA Results (RLU)” value ([1]; GP28 (S. aureus, mecA(−))) was 246636 RLU, the “HPA Results (RLU)” value ([1]; GP29 (S. aureus, mecA(+))) was 388748 RLU and the “HPA Results (RLU)” value ([1]; GP30 (S. aureus, mecA(−))) was 440128 RLU. The “HPA Results (RLU)” value ([1]; GP31 (S. aureus, mecA(+))) was 349207 RLU, the “HPA Results (RLU)” value ([1]; GP32 (S. aureus, mecA(−))) was 432041 RLU and the “HPA Results (RLU)” value ([1]; GP33 (S. aureus, mecA(+))) was 160830 RLU. For the same substance, the “HPA Results (RLU)” value ([1]; GP34 (S. aureus, mecA(−))) was 634079 RLU, the “HPA Results (RLU)” value ([1]; GP35 (S. aureus, mecA(+))) was 543089 RLU and the “HPA Results (RLU)” value ([1]; GP36 (S. aureus, mecA(−))) was 370898 RLU. The “HPA Results (RLU)” value ([1]; GP37 (S. aureus, mecA(+))) was 397722 RLU, the “HPA Results (RLU)” value ([1]; GP38 (S. aureus, mecA(+))) was 387613 RLU and the “HPA Results (RLU)” value ([1]; GP39 (S. aureus, mecA(−))) was 280358 RLU. For the same substance, the “HPA Results (RLU)” value ([1]; GP40 (S. aureus, mecA(−))) was 292407 RLU, the “HPA Results (RLU)” value ([1]; Neg Control (Hybridization Buffer)) was 1775 RLU and the “HPA Results (RLU)” value ([1]; Pos Control GP1217 (S. aureus, mecA(+), MRSA)) was 170530 RLU. The “HPA Results (# positive for indicated probes)” value ([1]; S. epidermidis, 1 isolate, Oxacillin MIC >16 μg/ml) was 1, the “HPA Results (# positive for indicated probes)” value ([1]; S. epidermidis, 2 isolates, Oxacillin MIC ≦0.25 μg/ml) was 2 and the “HPA Results (# positive for indicated probes)” value ([1]; S. hemoliticus, 1 isolate, Oxacillin MIC ≦0.25 μg/ml) was 1. The “HPA Results (# positive for indicated probes)” value ([1]; S. hominis, 1 isolate, Oxacillin MIC ≦0.25 μg/ml) was 1, the “HPA Results (# positive for indicated probes)” value ([1]; S. hyicus-hyicus, 1 isolate, Oxacillin MIC ≦0.25 μg/ml) was 1 and the “HPA Results (# positive for indicated probes)” value ([1]; S. intermedius, 1 isolate, Oxacillin MIC ≦0.25 μg/ml) was 1. For the same substance, the “HPA Results (# positive for indicated probes)” value ([1]; S. saprophyticus, 1 isolate, Oxacillin MIC 0.5 μg/ml) was 1, the “HPA Results (# positive for indicated probes)” value ([1]; S. simulans, 1 isolate, Oxacillin MIC ≦0.25 μg/ml) was 1 and the “HPA Results (# positive for indicated probes)” value ([1]; S. warneri, 1 isolate, Oxacillin MIC ≦0.25 μg/ml) was 1. The RLU ([2]; Table 6, GP18(Neg), MSSA ATCC #12600) was 170,434 RLU, the RLU ([2]; Table 6, GP1214(Neg), MSSA ATCC #29247) was 234,286 RLU and the RLU ([2]; Table 6, GP1217(Pos), MRSA ATCC #33591) was 225,772 RLU. The RLU ([2]; Table 6, GP1218(Pos), MRSA ATCC #43866) was 203,488 RLU.

“CGCTATGATCCCAATCTAACTTCCACATACC (AE label, linker between 21 and 22, chemistry not fully specified; listed as Staphylococcus aureus) [Probe 2]” was tested, and the “AE-probe Average RLU” value ([3]; No Specimen) was 3062 RLU, the “AE-probe Average RLU” value ([3]; S. aureus specimen #99, mecA PCR Pos) was 8072 RLU and the “AE-probe Average RLU” value ([3]; S. aureus specimen #100, mecA PCR Neg) was 5585 RLU. For the same substance, the “AE-Probe Signal (RLU)” value ([3]; Table 2, Negative Control) was 1931 RLU, the “AE-Probe Signal (RLU)” value ([3]; Table 2, specimen 10, mecA PCR Neg, pan-bacterial diluted 1:3000 prior to luminometry) was 3274 RLU and the “AE-Probe Signal (RLU)” value ([3]; Table 2, specimen 99, mecA PCR Pos, pan-bacterial diluted 1:3000 prior to luminometry) was 13021 RLU. The “AE-Probe Signal (RLU)” value ([3]; Table 2, specimen 100, mecA PCR Neg, pan-bacterial diluted 1:3000 prior to luminometry) was 6186 RLU, the “AE-Probe Signal (RLU)” value ([3]; Table 2, specimen 101, mecA PCR Neg, pan-bacterial diluted 1:3000 prior to luminometry) was 6266 RLU and the “AE-Probe Signal (RLU)” value ([3]; Table 2, specimen 102, mecA PCR Pos, pan-bacterial diluted 1:3000 prior to luminometry) was 13065 RLU. The “AE-Probe Signal (RLU)” value ([3]; Table 2, specimen 103, mecA PCR Neg, pan-bacterial diluted 1:3000 prior to luminometry) was 2366 RLU, the “AE-Probe Signal (RLU)” value ([3]; Table 2, specimen 104, mecA PCR Neg, pan-bacterial diluted 1:3000 prior to luminometry) was 2000 RLU and the “AE-Probe Signal (RLU)” value ([3]; Table 2, specimen 105, mecA PCR Neg, pan-bacterial diluted 1:3000 prior to luminometry) was 2714 RLU. The “AE-Probe Signal (RLU)” value ([3]; Table 2, specimen 106, mecA PCR Neg, pan-bacterial diluted 1:3000 prior to luminometry) was 2989 RLU, the “AE-Probe Signal (RLU)” value ([3]; Table 2, specimen 139, mecA PCR Pos, pan-bacterial diluted 1:3000 prior to luminometry) was 9563 RLU and the “AE-Probe Signal (RLU)” value ([3]; Table 2, specimen 140, mecA PCR Pos, pan-bacterial diluted 1:3000 prior to luminometry) was 4967 RLU. The “AE-Probe Signal (RLU)” value ([3]; Table 2, specimen 142, mecA PCR Pos, pan-bacterial diluted 1:3000 prior to luminometry) was 10345 RLU, the “AE-Probe Signal (RLU)” value ([3]; Table 2, specimen 145, mecA PCR Neg, pan-bacterial diluted 1:3000 prior to luminometry) was 2788 RLU and the “AE-Probe Signal (RLU)” value ([3]; Table 2, specimen 148, mecA PCR Pos, pan-bacterial diluted 1:3000 prior to luminometry) was 15878 RLU. The “AE-Probe Signal (RLU)” value ([3]; Table 2, specimen 155, mecA PCR Neg, pan-bacterial diluted 1:3000 prior to luminometry) was 2257 RLU, the “AE-Probe Signal (RLU)” value ([3]; Table 2, specimen 164, mecA PCR Neg, pan-bacterial diluted 1:3000 prior to luminometry) was 3287 RLU and the “AE-Probe Signal (RLU)” value ([3]; Table 2, specimen 178, mecA PCR Pos, pan-bacterial diluted 1:3000 prior to luminometry) was 12652 RLU. For the same substance, the “AE-Probe Signal (RLU)” value ([3]; Table 2, specimen 188, mecA PCR Pos, pan-bacterial diluted 1:3000 prior to luminometry) was 20757 RLU, the “AE-Probe Signal (RLU)” value ([3]; Table 2, specimen 270, mecA PCR Pos, pan-bacterial diluted 1:3000 prior to luminometry) was 14965 RLU and the “AE-Probe Signal (RLU)” value ([3]; Table 2, specimen 296, mecA PCR Pos, Lab Pos control, pan-bacterial diluted 1:3000 prior to luminometry) was 10585 RLU.

With “MeO-probe 2: 2′-methoxy analog of AE-labeled probe 2 (SEQ ID NO:2); linker position not printed in Table 10 (DNA CGCTATGATCCCAATCTAACTTCCACATACC; all 2'-O-methyl, backbone and T or U not given here; acridinium ester label on internal non-nucleotide linker; listed as Staphylococcus aureus)” the “GP1214(Neg) RLU” value [2, 4] was 5242 RLU, the “GP1217(Pos) RLU” value [2, 4] was 69687 RLU and the “Probe alone Avg RLU” value [2, 4] was 2378 RLU.
